Reference: EP0007672A1, “Isocyanoalkenes, process and useful intermediates for their preparation, pharmaceutical and fungicidal preparations containing those isocyanoalkenes and the use of the fungicidal preparations in agriculture” (GIST-BROCADES N.V., priority 1978, dated 1980)
Values after ≈ are worked out from the molar mass of the structure shown. Read-outs that look alike come from different tables or passages of the source.

Legend:
Assay in all cases: MIC (Minimum Inhibitory Concentration)
Format in all cases: cell-based
[1] = test system: Pasteurella multocida; settings: read-out: MIC values
[2] = test system: Trichophyton mentagrophytus
[3] = test system: Candida albicans
[4] = test system: Trichophyton rubrum
[5] = test system: Trichophyton violoceum; settings: Trichophyton violoceum 442-62; read-out: MIC values
[6] = test system: Trichophyton tonsurans; settings: Trichophyton tonsurans 561-50; read-out: MIC values
[7] = test system: Trichophyton schoenleinii; settings: Trichophyton schoenleinii 435-63; read-out: MIC values
[8] = test system: Trichophyton soudanese joyeux; settings: Trichophyton soudanese joyeux 440-63; read-out: MIC values
[9] = test system: Trichophyton verrucosum
[10] = test system: Trichophyton equinum
[11] = test system: Trichophyton quickeaneum; settings: Trichophyton quickeaneum A 2040; read-out: MIC values
[12] = test system: Streptococcus haemolyticus; settings: Streptococcus haemolyticus A 1088; read-out: MIC values
[13] = Trichophyton mentagrophytus 367-68, read-out: MIC values
[14] = Trichophyton mentagrophytus 421-67, read-out: MIC values
[15] = Trichophyton mentagrophytus A 3252, read-out: MIC values
[16] = Trichophyton mentagrophytus R 177, read-out: MIC values
[17] = Trichophyton mentagrophytus R 178, read-out: MIC values
[18] = Trichophyton mentagrophytus RRL 305, read-out: MIC values
[19] = Candida albicans A 7, read-out: MIC values
[20] = Candida albicans A 3140, read-out: MIC values
[21] = Candida albicans A 3141, read-out: MIC values
[22] = Candida albicans A 3144, read-out: MIC values
[23] = Candida albicans A 3145, read-out: MIC values
[24] = Candida albicans A 3165, read-out: MIC values
[25] = Candida albicans A 3166, read-out: MIC values
[26] = Candida albicans A 3167, read-out: MIC values
[27] = Candida albicans A 3168, read-out: MIC values
[28] = Candida albicans A 3169, read-out: MIC values
[29] = Candida albicans A 3171, read-out: MIC values
[30] = Candida albicans A 3190, read-out: MIC values
[31] = Candida albicans A 3191, read-out: MIC values
[32] = Candida albicans A 3194, read-out: MIC values
[33] = Candida albicans A 3196, read-out: MIC values
[34] = Trichophyton rubrum 218-65, read-out: MIC values
[35] = Trichophyton rubrum 494-62, read-out: MIC values
[36] = Trichophyton rubrum A 810, read-out: MIC values
[37] = Trichophyton verrucosum 134-66, read-out: MIC values
[38] = Trichophyton verrucosum A 2922, read-out: MIC values
[39] = Trichophyton equinum 182-76, read-out: MIC values
[40] = Trichophyton equinum 856-71, read-out: MIC values
[41] = Candida albicans A 3142, read-out: MIC values
[42] = Candida albicans A 3143, read-out: MIC values
[43] = Candida albicans A 3184, read-out: MIC values
[44] = Candida albicans A 3192, read-out: MIC values

| Structure (SMILES) | MIC [2, 13] [µg/mL] | MIC [2, 14] [µg/mL] | MIC [2, 15] [µg/mL] | MIC [2, 16] [µg/mL] | MIC [2, 17] [µg/mL] | MIC [2, 18] [µg/mL] | MIC [3, 19] [µg/mL] | MIC [3, 20] [µg/mL] | MIC [3, 21] [µg/mL] | MIC [3, 22] [µg/mL] | MIC [3, 23] [µg/mL] | MIC [3, 24] [µg/mL] | MIC [3, 25] [µg/mL] | MIC [4, 34] [µg/mL] | MIC [4, 35] [µg/mL] | MIC [5] [µg/mL] | MIC [6] [µg/mL] | MIC [7] [µg/mL] | MIC [10, 39] [µg/mL] | MIC [11] [µg/mL] | also measured |
| --- | --- | --- | --- | --- | --- | --- | --- | --- | --- | --- | --- | --- | --- | --- | --- | --- | --- | --- | --- | --- | --- |
| [C-]#[N+]C(=C(C)CC)S(=O)(=O)c1ccc(C)cc1 [Example 27a, 1-isocyano-2-methyl-1-(4-toluenesulphonyl)-1-butene] | 6 (≈ 24.1 µM) | 6 (≈ 24.1 µM) | 6 (≈ 24.1 µM) | 6 (≈ 24.1 µM) | 6 (≈ 24.1 µM) | 3 (≈ 12 µM) | 0.2 (≈ 0.802 µM) | 0.8 (≈ 3.21 µM) | < 0.05 | 0.2 (≈ 0.802 µM) | < 0.05 | 0.8 (≈ 3.21 µM) | 3 (≈ 12 µM) | 0.4 (≈ 1.6 µM) | 0.4 (≈ 1.6 µM) | 12.5 (≈ 50.1 µM) | 3 (≈ 12 µM) | 6 (≈ 24.1 µM) | 0.4 (≈ 1.6 µM) | 0.1 (≈ 0.401 µM) | MIC ([1]; Pasteurella multocida A 723): 1.5 µg/mL (≈ 6.02 µM); MIC [3, 26]: 0.2 µg/mL (≈ 0.802 µM); MIC [3, 27]: 0.2 µg/mL (≈ 0.802 µM); MIC [3, 28]: 0.1 µg/mL (≈ 0.401 µM); MIC [3, 29]: 0.2 µg/mL (≈ 0.802 µM); MIC [3, 30]: < 0.05 µg/mL; MIC [3, 31]: 0.1 µg/mL (≈ 0.401 µM); MIC [3, 32]: < 0.05 µg/mL; MIC [3, 33]: 0.4 µg/mL (≈ 1.6 µM); MIC [4, 36]: 0.4 µg/mL (≈ 1.6 µM); MIC [8]: 6 µg/mL (≈ 24.1 µM); MIC [9, 37]: 0.8 µg/mL (≈ 3.21 µM); MIC [9, 38]: 6 µg/mL (≈ 24.1 µM); MIC [10, 40]: < 0.05 µg/mL |
| [C-]#[N+]C(C(C)=CC)S(=O)(=O)c1ccc(C)cc1 (stereo not drawn) [Example 27b, 1-isocyano-2-methyl-l-(4-toluenesulphonyl)-2-butene] | 3 (≈ 12 µM) | 3 (≈ 12 µM) | 3 (≈ 12 µM) | 6 (≈ 24.1 µM) | 6 (≈ 24.1 µM) | 3 (≈ 12 µM) | 0.4 (≈ 1.6 µM) | 0.8 (≈ 3.21 µM) | < 0.05 | 0.4 (≈ 1.6 µM) | < 0.05 | 1.5 (≈ 6.02 µM) | 3 (≈ 12 µM) | 1.5 (≈ 6.02 µM) | 0.8 (≈ 3.21 µM) | 6 (≈ 24.1 µM) | 3 (≈ 12 µM) | 6 (≈ 24.1 µM) | 0.8 (≈ 3.21 µM) | 1.5 (≈ 6.02 µM) | MIC ([1]; Pasteurella multocida A 723): 3 µg/mL (≈ 12 µM); MIC [3, 26]: 0.4 µg/mL (≈ 1.6 µM); MIC [3, 27]: 0.4 µg/mL (≈ 1.6 µM); MIC [3, 28]: 0.4 µg/mL (≈ 1.6 µM); MIC [3, 29]: 0.4 µg/mL (≈ 1.6 µM); MIC [3, 30]: 0.1 µg/mL (≈ 0.401 µM); MIC [3, 31]: 0.2 µg/mL (≈ 0.802 µM); MIC [3, 32]: 0.4 µg/mL (≈ 1.6 µM); MIC [3, 33]: 0.4 µg/mL (≈ 1.6 µM); MIC [4, 36]: 0.8 µg/mL (≈ 3.21 µM); MIC [8]: 6 µg/mL (≈ 24.1 µM); MIC [9, 37]: 1.5 µg/mL (≈ 6.02 µM); MIC [9, 38]: 6 µg/mL (≈ 24.1 µM); MIC [10, 40]: 0.4 µg/mL (≈ 1.6 µM) |
| Clc1ccc(COC(Cn2ccnc2)c2ccc(Cl)cc2Cl)c(Cl)c1 (stereo not drawn) [miconazole, reference compound] | 3 (≈ 7.21 µM) | 0.2 (≈ 0.481 µM) | 0.4 (≈ 0.961 µM) | 0.4 (≈ 0.961 µM) | 25 (≈ 60.1 µM) | 0.4 (≈ 0.961 µM) | – | – | – | – | – | – | – | 0.1 (≈ 0.24 µM) | 0.8 (≈ 1.92 µM) | 0.8 (≈ 1.92 µM) | 0.1 (≈ 0.24 µM) | 0.2 (≈ 0.481 µM) | 0.4 (≈ 0.961 µM) | 0.1 (≈ 0.24 µM) | MIC ([1]; Pasteurella multocida): > 100 µg/mL; MIC ([3]; read-out: MIC values, Candida albicans A 7): 0.2 µg/mL (≈ 0.481 µM); MIC ([3]; read-out: MIC values, Candida albicans A 3140): 0.1 µg/mL (≈ 0.24 µM); MIC ([3]; read-out: MIC values, Candida albicans A 3141): < 0.05 µg/mL; MIC ([3]; read-out: MIC values, Candida albicans A 3144): 0.8 µg/mL (≈ 1.92 µM); MIC ([3]; read-out: MIC values, Candida albicans A 3145): < 0.05 µg/mL; MIC ([3]; read-out: MIC values, Candida albicans A 3165): 0.2 µg/mL (≈ 0.481 µM); MIC ([3]; read-out: MIC values, Candida albicans A 3167): < 0.05 µg/mL; MIC ([3]; read-out: MIC values, Candida albicans A 3168): 100 µg/mL (≈ 240 µM); MIC ([3]; read-out: MIC values, Candida albicans A 3169): 1.5 µg/mL (≈ 3.6 µM); MIC ([3]; read-out: MIC values, Candida albicans A 3171): < 0.05 µg/mL; MIC ([3]; read-out: MIC values, Candida albicans A 3190): < 0.05 µg/mL; MIC ([3]; read-out: MIC values, Candida albicans A 3191): < 0.05 µg/mL; MIC ([3]; read-out: MIC values, Candida albicans A 3194): 0.2 µg/mL (≈ 0.481 µM); MIC [4, 36]: 0.8 µg/mL (≈ 1.92 µM); MIC [8]: 1.5 µg/mL (≈ 3.6 µM); MIC [9, 37]: 0.8 µg/mL (≈ 1.92 µM); MIC [9, 38]: 0.8 µg/mL (≈ 1.92 µM); MIC [10, 40]: < 0.05 µg/mL |
| [C-]#[N+]C(=C(C)C)S(=O)(=O)c1ccc(C)cc1 [Example 5, 1-isocyano-2-methyl-1-(4-toluenesulphonyl)-1-propene] | 1.5 (≈ 6.37 µM) | 1.5 (≈ 6.37 µM) | 0.8 (≈ 3.4 µM) | 6 (≈ 25.5 µM) | 50 (≈ 212 µM) | 3 (≈ 12.7 µM) | 3 (≈ 12.7 µM) | 12.5 (≈ 53.1 µM) | 25 (≈ 106 µM) | 25 (≈ 106 µM) | 12.5 (≈ 53.1 µM) | 12.5 (≈ 53.1 µM) | 12.5 (≈ 53.1 µM) | 0.4 (≈ 1.7 µM) | 0.4 (≈ 1.7 µM) | 0.1 (≈ 0.425 µM) | < 0.1 | 0.2 (≈ 0.85 µM) | 3 (≈ 12.7 µM) | 0.8 (≈ 3.4 µM) | MIC [3, 41]: 25 µg/mL (≈ 106 µM); MIC [3, 42]: 25 µg/mL (≈ 106 µM); MIC [3, 26]: 25 µg/mL (≈ 106 µM); MIC [3, 27]: 25 µg/mL (≈ 106 µM); MIC [3, 28]: 25 µg/mL (≈ 106 µM); MIC [3, 29]: 12.5 µg/mL (≈ 53.1 µM); MIC [3, 43]: 12.5 µg/mL (≈ 53.1 µM); MIC [3, 30]: 12.5 µg/mL (≈ 53.1 µM); MIC [3, 31]: 25 µg/mL (≈ 106 µM); MIC [3, 44]: 25 µg/mL (≈ 106 µM); MIC [3, 32]: 25 µg/mL (≈ 106 µM); MIC [3, 33]: 25 µg/mL (≈ 106 µM); MIC [8]: 12.5 µg/mL (≈ 53.1 µM); MIC [10, 40]: 6 µg/mL (≈ 25.5 µM) |
| [C-]#[N+]C(=C(CCCC)c1ccccc1)S(=O)(=O)c1ccc(C)cc1 [Example 19, 2-phenyl-1-isocyano-1-(4-toluenesulphonyl)-1-hexene] | > 100 | > 100 | > 100 | > 100 | > 100 | – | 6 (≈ 17.7 µM) | 6 (≈ 17.7 µM) | 6 (≈ 17.7 µM) | > 100 | 6 (≈ 17.7 µM) | 6 (≈ 17.7 µM) | 6 (≈ 17.7 µM) | > 100 | > 100 | > 100 | 0.4 (≈ 1.18 µM) | > 100 | > 100 | > 100 | MIC ([1]; Pasteurella multocida A 723): > 100 µg/mL; MIC [3, 41]: 6 µg/mL (≈ 17.7 µM); MIC [3, 42]: 6 µg/mL (≈ 17.7 µM); MIC [3, 26]: 50 µg/mL (≈ 147 µM); MIC [3, 27]: 6 µg/mL (≈ 17.7 µM); MIC [3, 28]: 3 µg/mL (≈ 8.84 µM); MIC [3, 29]: 3 µg/mL (≈ 8.84 µM); MIC [3, 43]: 50 µg/mL (≈ 147 µM); MIC [3, 30]: 6 µg/mL (≈ 17.7 µM); MIC [3, 31]: > 100 µg/mL; MIC [3, 44]: 6 µg/mL (≈ 17.7 µM); MIC [3, 32]: 6 µg/mL (≈ 17.7 µM); MIC [3, 33]: 100 µg/mL (≈ 295 µM); MIC [12]: > 100 µg/mL; MIC [4, 36]: > 100 µg/mL; MIC [9, 37]: 3 µg/mL (≈ 8.84 µM); MIC [9, 38]: 3 µg/mL (≈ 8.84 µM); MIC ([10]; Trichophyton equinum 441-51, read-out: MIC values): 3 µg/mL (≈ 8.84 µM) |
